Consider one compound from patent US12331051B2 (priority 2021, dated 2025).

A word on the Ki: it is a dissociation constant, usually derived from enzyme kinetics or from competition with a known ligand. Higher therefore signals lower affinity.

Series [1] has as its target ADRa2B (α2B adrenergic receptor) (Homo sapiens, UniProt P18089). The series is described as follows: BRET-based G protein dissociation assay. It is filed as cell-based. (In general: In BRET a luciferase serves as donor, and the signal depends on an acceptor being close.)
Series [2] is described as follows: Single-dose comparative pharmacokinetic study, IV and oral, fasted and fed. It is filed as in vivo, Beagle dogs. The protocol:
A single-dose comparative pharmacokinetic (PK) study was conducted in Beagle dogs to assess the oral bioavailability and the effect of food on the “E559 polymorph” (FIG. 12). Four male dogs were used in 3 test groups in a cross-over design with at least 3 days washout period between each test group (Groups 1, 2 and 3). In Group 1, four male dogs received a single intravenous (IV) dose of 0.0324 mg/kg of the “polymorph E559”. In Group 2 the same four dogs received a single oral dose of 0.324 mg/kg of the “polymorph E559” in fasted state. In Group 3 the same four dogs received a single oral dose of 0.324 mg/kg of the “E559 polymorph” in the fed state (same oral dose amount as in Group 2). Blood samples were collected from all dogs at pre-dose and 0.08, 0.25, 0.5, 1, 2, 4, 8, and 24 hours post dose to measure the “E559 polymorph” levels by LC-MS/MS method conducted as described in Example 3.

The subject of series [3] is rat spared nerve injury (SNI) model. The series is described as follows: Spared nerve injury (SNI) model, von Frey mechanical allodynia. In kind it is in vivo. Here is the method:
To evaluate the function the “E559 polymorph” in neuropathic pain, mechanical allodynia test was evaluated by von Frey filament in rat spared nerve injury (SNI) model before and after before and after treatment with the “E559 polymorph”. The SNI model and von Frey filament testing were conducted as previously described (Decosterd & Woolf. Pain, 2000, v87, p149-158). Briefly, Animals with a pain threshold of <15 g, assessed using the Von Frey mechanical allodynia testing, were randomly placed in experimental groups. Each rat group consisted of 10 male rats. On day 7 post-surgery treatment was initiated. […]
The pain response (Von Frey testing) was evaluated on day 0 pre-surgery (labelled as Baseline in FIG. 27), on day 6 post-surgery (labelled as Day 6 Pre grouping in FIG. 27), and at 2, 4, 6, and 24 hours after a single oral dose of either vehicle, or the “E559 polymorph” at 0.3, 1, 3, or 10 mg/kg (labelled as BETR-001 in FIG. 27), or gabapentin at 150 mg/kg. […]
Rat groups were treated (via oral administration) with either vehicle, or the “E559 polymorph” at 20 mg/kg (labelled as BETR-001 in FIG. 28), or gabapentin at 150 mg/kg. […] The pain response (Von Frey testing) was evaluated on day 0 pre-surgery (labelled as Baseline in FIG. 28), on day 6 post-surgery (labelled as Day 6 Pre grouping in FIG. 28), and at 2 hours post-treatment given on days 7, 11, and 15 post-surgery. […]

Series [4] concerns the target T1, Beta 1 adrenergic receptor (Homo sapiens, UniProt P08588).
T1 construct: expressed in transfected cells; host or cells: HEK-293
The series is described as follows: Radioligand binding, cell membrane homogenates. The protocol:
(§1) Neuro-receptor binding and functional effects of the “E559 polymorph” was examined by analyzing binding affinity [Ki (nM)], functional agonist activity [EC50 (nM)], and functional antagonist activity [IC50 (nM)] against a panel of key receptors in neurophysiological disorders. Binding and functional assays were performed at “E559 polymorph” concentrations of 0.0003, 0.003, 0.01, 0.03, 0.1, 0.3, 1, and 10 μM. In binding assays, cell membrane homogenates, expressing each receptor target, were incubated with the corresponding radio-ligand in absence or presence of several concentration of the “E559 polymorph” compound. The measurement of binding affinity of the “E559 polymorph” is represented in TABLE XIII by Ki (nM) which was calculated as percent inhibition of the binding of a radioactively labeled reference ligand at each receptor. In functional assays the HEK-293 cells expressing each receptor target were suspended in buffer and distribute in microplates and incubated for 30 minutes at room temperature or 37° C. in the presence of buffer alone (basal control), the reference agonist or antagonist, or the “E559 polymorph. Following incubation, the cells were lysed and the appropriate fluorescent probe (Ca2+ flux, cAMP, or IP1) were added for 60 minutes to measure the fluorescence transfer at the appropriate wavelength using a microplate reader. The cellular agonist effect (EC50) was calculated as a percent of control response to a known reference agonist and the cellular antagonist effect (IC50) was calculated as a percent inhibition of control reference agonist response for each receptor.

The target in series [5] is T2, Alpha 1A adrenergic receptor (Homo sapiens, UniProt P35348).
T2 construct: expressed in transfected cells; host or cells: HEK-293
T2 sequence (P35348 1-466): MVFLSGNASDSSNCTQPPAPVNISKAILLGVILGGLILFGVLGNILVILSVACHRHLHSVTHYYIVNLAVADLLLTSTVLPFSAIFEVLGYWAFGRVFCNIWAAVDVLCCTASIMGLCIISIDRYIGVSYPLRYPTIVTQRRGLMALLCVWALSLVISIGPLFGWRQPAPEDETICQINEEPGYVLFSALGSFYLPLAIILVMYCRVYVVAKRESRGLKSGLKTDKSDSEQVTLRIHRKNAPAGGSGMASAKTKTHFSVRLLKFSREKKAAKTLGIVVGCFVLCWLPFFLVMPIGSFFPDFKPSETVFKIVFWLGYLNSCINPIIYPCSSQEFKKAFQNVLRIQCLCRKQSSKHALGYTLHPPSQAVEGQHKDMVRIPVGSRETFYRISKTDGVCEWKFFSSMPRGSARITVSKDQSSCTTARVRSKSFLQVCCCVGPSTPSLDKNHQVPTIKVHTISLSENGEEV
The series is described as follows: Radioligand binding, cell membrane homogenates. The protocol:
as §1

Series [6] has as its target T3, 5-HT2A receptor (5-HT2AR) (Homo sapiens, UniProt P28223).
T3 construct: expressed in transfected cells; host or cells: HEK-293
The series is described as follows: Radioligand binding, cell membrane homogenates. Here is the method: as §1

The target of series [7] is T4, Serotonin 7 receptor (5-HT7R) (Homo sapiens, UniProt P34969).
T4 construct: expressed in transfected cells; host or cells: HEK-293
The series is described as follows: Radioligand binding, cell membrane homogenates. The protocol:
as §1

Sequence of ADRa2B (α2B adrenergic receptor) (P18089 whole entry): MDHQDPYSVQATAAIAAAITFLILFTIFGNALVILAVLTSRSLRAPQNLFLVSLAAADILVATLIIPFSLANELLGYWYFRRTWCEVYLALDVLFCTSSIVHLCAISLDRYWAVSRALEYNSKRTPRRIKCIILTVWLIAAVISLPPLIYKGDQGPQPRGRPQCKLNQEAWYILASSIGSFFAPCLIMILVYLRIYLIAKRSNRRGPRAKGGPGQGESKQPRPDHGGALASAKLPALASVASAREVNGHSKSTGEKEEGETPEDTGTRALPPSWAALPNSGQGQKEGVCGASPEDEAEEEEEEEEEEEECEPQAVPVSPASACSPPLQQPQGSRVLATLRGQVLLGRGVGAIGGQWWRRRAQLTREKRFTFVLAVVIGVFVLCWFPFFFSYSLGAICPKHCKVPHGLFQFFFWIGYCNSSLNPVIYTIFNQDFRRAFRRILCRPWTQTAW
T4 sequence (P34969 whole entry): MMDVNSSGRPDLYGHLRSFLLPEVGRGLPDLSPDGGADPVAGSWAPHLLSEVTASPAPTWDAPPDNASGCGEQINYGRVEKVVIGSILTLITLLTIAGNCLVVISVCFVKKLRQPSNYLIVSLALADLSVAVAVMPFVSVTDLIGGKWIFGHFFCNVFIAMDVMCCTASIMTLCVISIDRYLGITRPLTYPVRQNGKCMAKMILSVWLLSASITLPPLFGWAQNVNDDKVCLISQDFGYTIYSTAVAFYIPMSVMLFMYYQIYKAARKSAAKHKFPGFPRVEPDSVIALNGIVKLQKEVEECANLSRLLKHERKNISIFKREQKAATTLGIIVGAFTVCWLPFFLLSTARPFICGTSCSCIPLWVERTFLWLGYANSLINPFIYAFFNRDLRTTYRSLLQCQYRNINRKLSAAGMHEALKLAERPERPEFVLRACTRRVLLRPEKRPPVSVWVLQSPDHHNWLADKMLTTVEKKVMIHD
T3 sequence (P28223 whole entry): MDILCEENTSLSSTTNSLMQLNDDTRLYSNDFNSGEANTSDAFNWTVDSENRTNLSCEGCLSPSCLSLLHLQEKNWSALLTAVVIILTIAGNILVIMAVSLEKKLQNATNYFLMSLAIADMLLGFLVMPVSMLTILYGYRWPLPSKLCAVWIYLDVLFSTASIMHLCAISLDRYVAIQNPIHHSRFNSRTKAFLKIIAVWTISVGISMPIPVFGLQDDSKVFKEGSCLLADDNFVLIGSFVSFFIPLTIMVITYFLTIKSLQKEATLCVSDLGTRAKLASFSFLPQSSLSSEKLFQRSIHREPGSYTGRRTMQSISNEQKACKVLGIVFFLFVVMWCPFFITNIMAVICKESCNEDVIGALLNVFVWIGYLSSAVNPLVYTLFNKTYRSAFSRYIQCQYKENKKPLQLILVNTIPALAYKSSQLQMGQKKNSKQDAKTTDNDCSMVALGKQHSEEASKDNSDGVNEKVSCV
T1 sequence (P08588 whole entry): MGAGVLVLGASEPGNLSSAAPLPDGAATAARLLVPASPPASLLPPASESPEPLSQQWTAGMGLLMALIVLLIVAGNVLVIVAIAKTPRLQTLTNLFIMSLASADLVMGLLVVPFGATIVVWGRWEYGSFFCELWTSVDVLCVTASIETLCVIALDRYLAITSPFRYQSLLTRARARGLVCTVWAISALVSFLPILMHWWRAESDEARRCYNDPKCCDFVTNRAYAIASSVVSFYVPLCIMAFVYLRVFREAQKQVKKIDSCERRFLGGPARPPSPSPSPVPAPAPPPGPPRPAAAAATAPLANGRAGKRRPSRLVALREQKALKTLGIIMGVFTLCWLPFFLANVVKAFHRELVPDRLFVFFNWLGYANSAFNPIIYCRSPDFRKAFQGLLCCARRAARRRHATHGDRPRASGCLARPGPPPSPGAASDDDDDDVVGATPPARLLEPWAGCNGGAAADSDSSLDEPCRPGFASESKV

The compound `CCN(CC)C(=O)[C@@H]1C=C2c3cccc4[nH]c(Br)c(c34)C[C@H]2N(C)C1` [E559, (5R, 8R)-2-Bromo-9,10-didehydro-N,N-diethyl-6-methylergoline-8-carboxamide hemi-D-tartrate] had a Kb in series [1] of 79.2 nM. Besides, the oral bioavailability result in series [2] (oral 0.324 mg/kg vs IV 0.0324 mg/kg) is “good oral bioavailability”. For the same compound, the “effect of food on oral bioavailability” value in series [2] (oral 0.324 mg/kg, fasted vs fed) was “no differences in the mean absolute and relative oral bioavailability between fasted and fed dogs”. Further, the “inhibition of mechanical allodynia, repeated dosing” value in series [3] (oral 20 mg/kg on days 7, 9, 11, 13 and 15 post-surgery) is reported as “enhanced the inhibition effect on mechanism allodynia to levels comparable to the gabapentin positive control”. Further, the “inhibition of neuropathic pain (von Frey), single dose” value in series [3] (single oral dose 0.3, 1, 3 or 10 mg/kg on day 7 post-surgery, 2 and 4 hours post administration) is “significant dose-dependent inhibition of neuropathic pain”. The Ki in series [4] stood at 109 nM; in series [5], 59 nM; in series [6] it was 2.2 nM; in series [7] it was 3.81 nM.
